Assay results: patent US9617251B2, “Indanylaminopyridylcyclopropanecarboxylic acids, pharmaceutical compositions and uses thereof” (BOEHRINGER INGELHEIM INTERNATIONAL GMBH, priority 2015, dated 2017)
In brackets after ≈: the same amount, converted by molar mass.

How the values were obtained:
[1] = Aqueous solubility in buffer vs acetonitrile/water (1/1), LC-UV; assay type: physicochemical; details: kinetic from dmso stock, buffer pH 2.2, 24 h shaking, 2.5% DMSO
Outline: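 Aliquots of 10 mM DMSO stock diluted into buffer or acetonitrile/water (1/1), shaken 24 h, filtered and quantified by LC-UV; buffer amount compared with acetonitrile/water amount. Range 0.001-0.125 mg/mL at 2.5% DMSO; ">" marks over 90% dissolved.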

[2] = molecular target: T1, cytochrome P450 2C8-isoenzyme (Homo sapiens, UniProt P10632); test: Inhibition of CYP-2C8 (deethylation of amodiaquine, human liver microsomes); assay type: in vitro ADME; details: CYP-2C8, human liver microsomes, amodiaquine 1 μM, 37° C.
T1 construct: from tissue; host or cells: human liver microsomes
T1 sequence (P10632 1-490): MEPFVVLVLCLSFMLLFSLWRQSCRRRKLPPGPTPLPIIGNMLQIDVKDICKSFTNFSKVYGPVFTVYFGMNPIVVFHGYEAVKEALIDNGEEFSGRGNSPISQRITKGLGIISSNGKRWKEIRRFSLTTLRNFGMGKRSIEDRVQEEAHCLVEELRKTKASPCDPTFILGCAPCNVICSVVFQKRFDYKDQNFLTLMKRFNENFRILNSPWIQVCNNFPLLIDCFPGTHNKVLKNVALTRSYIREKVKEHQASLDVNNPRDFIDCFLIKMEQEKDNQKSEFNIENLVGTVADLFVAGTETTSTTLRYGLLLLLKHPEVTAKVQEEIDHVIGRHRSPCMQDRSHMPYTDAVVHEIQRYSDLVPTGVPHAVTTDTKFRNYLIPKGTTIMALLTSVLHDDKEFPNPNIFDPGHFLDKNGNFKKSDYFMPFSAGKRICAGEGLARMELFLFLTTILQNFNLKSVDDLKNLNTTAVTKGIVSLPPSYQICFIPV
Outline: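 Amodiaquine deethylation (1 μM substrate) was measured at 37 °C in human liver microsomes (0.05 mg/mL), 0.1 M Tris, 5 mM MgCl2, and started with 1 mM NADPH. Desethylamodiaquine was quantified by LC-MS/MS against a d5 internal standard. IC50 came from five concentrations, typically top 10–50 μM with 1:4 dilutions, fitted by least squares to a slope-and-background model.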

[3] = molecular target: T2, cytochrome P450 2C9-isoenzyme (Homo sapiens, UniProt P11712); test: Inhibition of CYP-2C9 (hydroxylation of diclofenac, human liver microsomes); assay type: in vitro ADME; details: CYP-2C9, human liver microsomes, diclofenac 10 μM, 37° C.
T2 construct: from tissue; host or cells: human liver microsomes
T2 sequence (P11712 whole entry): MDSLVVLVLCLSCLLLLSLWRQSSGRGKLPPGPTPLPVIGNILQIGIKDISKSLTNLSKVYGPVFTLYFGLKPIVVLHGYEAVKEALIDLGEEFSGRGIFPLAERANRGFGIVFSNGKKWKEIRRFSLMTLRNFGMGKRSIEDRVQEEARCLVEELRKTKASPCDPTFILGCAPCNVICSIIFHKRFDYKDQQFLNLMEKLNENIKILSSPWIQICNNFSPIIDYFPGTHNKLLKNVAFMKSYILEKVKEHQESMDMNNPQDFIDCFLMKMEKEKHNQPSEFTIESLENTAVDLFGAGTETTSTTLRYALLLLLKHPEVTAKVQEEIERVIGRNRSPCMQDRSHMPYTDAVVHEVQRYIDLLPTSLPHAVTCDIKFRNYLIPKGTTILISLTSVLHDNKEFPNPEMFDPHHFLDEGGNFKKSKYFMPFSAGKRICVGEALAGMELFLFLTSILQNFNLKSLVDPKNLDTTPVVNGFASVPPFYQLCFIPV
Outline: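 Human liver microsomes (0.1 mg/mL) in 0.1 M TRIS, 5 mM MgCl2, 10 μM diclofenac, 37 °C, duplicate five-point compound series; started with 1 mM NADPH, quenched by cooling and acetonitrile. Hydroxydiclofenac quantified by LC-MS/MS against 13C6 internal standard; IC50 by least-squares fit with slope and background terms.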

[4] = Chemical stability: degradation kinetics in acidic aqueous media (pH ca. 1.2), HPLC recovery; assay type: physicochemical; details: pH value of ca. 1.2 (acetonitrile/0.1 M aqueous HCl 2:3), 37° C.
Method: Degradation kinetics is used to simulate chemical stability of compounds in the acidic part of the gastro intestinal tract. […] Their application as medical drugs to treat human diseases is therefore less restricted and troublesome.
The chemical stability of the compounds of the invention at pH value of ca. 1.2 is determined as follows:
Compound is dissolved in an HPLC vial either in a mixture of acetonitrile/0.1 M aqueous HCl (2:3; pH ca. 1.2) or in a mixture of acetonitrile/McIlvaine buffer pH 7.4 (2:3) to get a concentration of approximately 0.25 mg/ml. The vial was then transferred into an HPLC autosampler system and maintained at a temperature of 37° C. A first sample is taken and injected immediately into a standard HPLC system with a UV DAD detector. Further samples are injected after 2, 4, 6, 8 and 10 hours. Amount of degraded compound is measured by determining the recovery rate of compound [%] for each injection using an HPLC standard gradient method. Therefore the peak area of the main peak for the first injection (AUt0) is determined and set as 100%. Peak area of the main peak is determined also for the further injections (AUtn, n=2, 4, 6, 8, 10) and expressed as fraction of (AUt0)/(AUtn, n=2, 4, 6, 8, 10) [%].

human GPR40 receptor = human GPR40 receptor (Homo sapiens, UniProt O14842); test: IP1 accumulation measurements using the IPOne assay system (1321N1 cells stably expressing human GPR40 receptor); assay type: cell-based; details: 1321N1 cells expressing human GPR40, 1 h stimulation at 37° C.
Sequence of human GPR40 receptor (O14842 whole entry): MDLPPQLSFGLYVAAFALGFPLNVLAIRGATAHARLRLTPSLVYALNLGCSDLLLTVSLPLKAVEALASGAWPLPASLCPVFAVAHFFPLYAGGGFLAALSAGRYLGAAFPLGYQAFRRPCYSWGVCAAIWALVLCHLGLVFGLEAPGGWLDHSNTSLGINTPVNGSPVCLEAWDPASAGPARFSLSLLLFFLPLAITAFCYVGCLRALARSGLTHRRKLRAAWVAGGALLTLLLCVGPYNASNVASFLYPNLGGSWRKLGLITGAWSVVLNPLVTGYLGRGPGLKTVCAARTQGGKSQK
Outline: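 Cells were stimulated with compounds for 1 h at 37 °C in HEPES-buffered stimulation buffer containing 50 mM LiCl, pH 7.4. IP1 was then detected by HTRF (IP1-d2/anti-IP1 cryptate, 1 h at room temperature), and 665/615 ratios were converted using an IP1 reference curve, with pEC50 obtained by variable-slope sigmoidal fitting.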

Row | SMILES | solubility at 24 h [1] [µg/mL] | IC50 [2] [µM] | IC50 [3] [µM] | Amount of degradation after 2 h [4] [%] | EC50 (human GPR40 receptor) [µM]
1 | COc1cc(F)c(-c2ccc(F)c3c2CC[C@H]3Nc2ccc([C@H]3C[C@@H]3C(=O)O)cn2)c(F)c1 [Example 56] | 73 (≈ 161 µM) | 33 | 28 | <0.5 | 0.151
2 | Nc1cc(F)c(-c2ccc(F)c3c2CC[C@H]3Nc2ccc([C@H]3C[C@@H]3C(=O)O)cn2)c(F)c1 [Example 58] | 107 (≈ 243 µM) | > 50 | > 50 | <0.5 | 0.462
3 | Cc1cc(OCC2(O)CCOCC2)cc(C)c1-c1ccc(F)c2c1CC[C@H]2Nc1ccc([C@H]2C[C@@H]2C(=O)O)cn1 [Example 63] | 118 (≈ 216 µM) | > 50 | > 50 | <0.5 | 0.02
4 | CNC(=O)c1cc(C)c(-c2ccc(F)c3c2CC[C@H]3Nc2ccc([C@H]3C[C@@H]3C(=O)O)cn2)c(C)c1 [Example 66] | 115 (≈ 243 µM) | > 50 | > 50 | <1.0 | 0.039
5 | COc1cc(-c2cc(C)c(-c3ccc(F)c4c3CC[C@H]4Nc3ccc([C@H]4C[C@@H]4C(=O)O)cn3)c(C)c2)ccn1 [Example 72] | 101 (≈ 193 µM) | 8 | 18 | <0.5 | 0.006
6 | O=C(O)[C@H]1C[C@@H]1c1ccc(N[C@@H]2CCc3c(-c4ccccc4C(F)(F)F)ccc(F)c32)nc1 [Example 74] | 82 (≈ 180 µM) | 21 | 14 | <1.0 | 0.049
7 | Cc1cc(C(=O)N(C)C)cc(C)c1-c1ccc(F)c2c1CC[C@H]2Nc1ccc([C@H]2C[C@@H]2C(=O)O)cn1 [Example 75] | 117 (≈ 240 µM) | > 50 | > 50 | <0.5 | 0.186
